Measured values reported in patent US6737383B1, “Herbicidal oxadiazolidines” (priority 1999, dated 2004).

Key:
[1] = system: rape; test: Test B pre/postemergence rape; assay type: in vivo, Brassica napus; conditions: for Rape plant response rating: scale of 0 to 10 where 0 is no effect and 10 is complete control
In short: (§1)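 Test chemicals in a non-phytotoxic solvent mixture with surfactant were sprayed preemergence onto planted seeds and postemergence onto plants 2 to 18 cm tall (1- to 4-leaf stage). After twelve to sixteen days in a greenhouse, injury was visually rated against untreated controls from 0 (no effect) to 10 (complete control).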

[2] = system: sugar beet; test: Test B pre/postemergence sugar beet; assay type: in vivo, Beta vulgaris; conditions: for Sugarbeets plant response rating: scale of 0 to 10 where 0 is no effect and 10 is complete control
In short: as §1

[3] = system: giant foxtail; test: Test B pre/postemergence giant foxtail; assay type: in vivo, Setaria faberii; conditions: for Giant foxtail plant response rating: scale of 0 to 10 where 0 is no effect and 10 is complete control
In short: as §1

[4] = system: crabgrass; test: Test B pre/postemergence crabgrass; assay type: in vivo, Digitaria sanguinalis; conditions: for Crabgrass plant response rating: scale of 0 to 10 where 0 is no effect and 10 is complete control
In short: as §1

[5] = system: surinam grass; test: Test B pre/postemergence surinam grass; assay type: in vivo, Brachiaria decumbens; conditions: for B. signalgrass plant response rating: scale of 0 to 10 where 0 is no effect and 10 is complete control
In short: as §1

[6] = system: purple nutsedge; test: Test B pre/postemergence purple nutsedge; assay type: in vivo, Cyperus rotundus; conditions: for Nutsedge plant response rating: scale of 0 to 10 where 0 is no effect and 10 is complete control
In short: as §1

[7] = system: smallflower flatsedge; test: Test B flood test smallflower flatsedge; assay type: in vivo, Cyperus difformis
In short: (§2)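 Flood test on plants grown to the 2-leaf stage; treated plants kept in greenhouse twelve to sixteen days, then visually rated against controls on a 0 (no effect) to 10 (complete control) scale.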

[8] = system: morningglory; test: Test B pre/postemergence morningglory; assay type: in vivo, Ipomoea hederacea; conditions: for Morningglory plant response rating: scale of 0 to 10 where 0 is no effect and 10 is complete control
In short: as §1

[9] = system: corn; test: Test B pre/postemergence corn; assay type: in vivo, Zea mays; conditions: for Corn plant response rating: scale of 0 to 10 where 0 is no effect and 10 is complete control
In short: as §1

[10] = system: rice; test: Test B flood test rice; assay type: in vivo, Oryza sativa
In short: as §2

[11] = system: wild oat; test: Test B pre/postemergence wild oat; assay type: in vivo, Avena fatua; conditions: for Wild oats plant response rating: scale of 0 to 10 where 0 is no effect and 10 is complete control
In short: as §1

[12] = system: blackgrass; test: Test B pre/postemergence blackgrass; assay type: in vivo, Alopecurus myosuroides; conditions: for Blackgrass plant response rating: scale of 0 to 10 where 0 is no effect and 10 is complete control
In short: as §1

[13] = system: wheat; test: Test B pre/postemergence wheat; assay type: in vivo, Triticum aestivum; conditions: for Wheat plant response rating: scale of 0 to 10 where 0 is no effect and 10 is complete control
In short: as §1

[14] = system: pigweed; test: Test B pre/postemergence pigweed; assay type: in vivo, Amaranthus retroflexus; conditions: for Redroot pigweed plant response rating: scale of 0 to 10 where 0 is no effect and 10 is complete control
In short: as §1

[15] = system: bamyardgrass; test: Test B flood test barnyardgrass; assay type: in vivo, Echinochloa crus-galli
In short: as §2

[16] = Postemergence, Rate 125 g/ha, scale 0 to 10, 0 is no effect, 10 is complete control
[17] = Postemergence, Rate 250 g/ha, scale 0 to 10, 0 is no effect, 10 is complete control
[18] = Preemergence, Rate 62 g/ha, scale 0 to 10 (0 no effect, 10 complete control)
[19] = Rate 500 g/ha, Postemergence, scale 0 to 10, 0 no effect, 10 complete control
[20] = Postemergence (flood test), Rate 125 g/ha, scale 0 to 10, 0 is no effect, 10 is complete control
[21] = Rate 62 g/ha, Postemergence (flood test species), scale of 0 to 10 where 0 is no effect and 10 is complete control
[22] = Rate 62 g/ha, flood test species, Pre-emergence, visual evaluation after twelve to sixteen days
[23] = Rate 125 g/ha, Pre-emergence, flood test species, scale 0 to 10 where 0 is no effect and 10 is complete control
[24] = Rate 250 g/ha, Pre-emergence, flood-test species, scale 0 to 10, 0 is no effect, 10 is complete control
[25] = Rate 500 g/ha, listed under Postemergence (flood test species), scale 0 to 10, 0 no effect, 10 complete control
[26] = Rate 500 g/ha, Pre-emergence, flood test species, scale 0 to 10 (0 no effect, 10 complete control)
[27] = flood test species, listed under Postemergence, Rate 250 g/ha, scale 0 to 10, 0 is no effect, 10 is complete control

CC1CC1n1c(=O)on(C(=O)N(c2ccc(Cl)cc2)C(C)C)c1=O (stereo not drawn) [Compound 369]
9: Giant foxtail plant response rating (0 to 10 scale) ([3]; Preemergence, Rate 125 g/ha) | Plant response rating, Giant foxtail [3, 19] | Crabgrass plant response rating ([4]; Preemergence, Rate 250 g/ha) | Plant response rating, Crabgrass [4, 19]
2: Rape plant response rating ([1]; Preemergence, Rate 250 g/ha) | Sugarbeets plant response rating ([2]; Preemergence, Rate 250 g/ha) | Plant response rating, Sugarbeets [2, 19] | Plant response rating, Giant foxtail [3, 17] | Plant response rating, Crabgrass [4, 17] | B. signalgrass plant response rating ([5]; Preemergence, Rate 250 g/ha) | B. signalgrass plant response rating ([5]; Preemergence, Rate 500 g/ha) | Plant response rating, S. Flatsedge [7, 20] | Plant response rating, S. Flatsedge [7, 27] | Blackgrass plant response rating ([12]; Preemergence, Rate 250 g/ha) | Plant response rating, Barnyardgrass [15, 25]
4: Sugarbeets plant response rating ([2]; Preemergence, Rate 500 g/ha) | Plant response rating, S. Flatsedge [7, 25] | Plant response rating, Wild oats [11, 19] | Plant response rating, Wheat [13, 19] | Redroot pigweed plant response rating (0 to 10 scale) ([14]; Preemergence, Rate 125 g/ha) | Plant response rating, Redroot pigweed [14, 19]
5: Rape plant response rating ([1]; Preemergence, Rate 500 g/ha) | Plant response rating, Crabgrass [4, 18] | Nutsedge plant response rating ([6]; Preemergence, Rate 500 g/ha) | Plant response rating, Blackgrass [12, 17] | Blackgrass plant response rating ([12]; Preemergence, Rate 500 g/ha) | Plant response rating, Blackgrass [12, 19]
7: Crabgrass plant response rating (0 to 10 scale) ([4]; Preemergence, Rate 125 g/ha) | Morningglory plant response rating ([8]; Rate 62 g/ha, Postemergence) | Wild oats plant response rating ([11]; Preemergence, Rate 500 g/ha)
0: Plant response rating, Rape [1, 16] | Plant response rating, Rape [1, 17] | Plant response rating, Rape [1, 18] | Rape plant response rating (0 to 10 scale) ([1]; Preemergence, Rate 125 g/ha) | Rape plant response rating ([1]; Rate 62 g/ha, Postemergence) | Plant response rating, Sugarbeets [2, 16] | Plant response rating, Sugarbeets [2, 17] | Plant response rating, Sugarbeets [2, 18] | Sugarbeets plant response rating (0 to 10 scale) ([2]; Preemergence, Rate 125 g/ha) | Sugarbeets plant response rating ([2]; Rate 62 g/ha, Postemergence) | Plant response rating, Giant foxtail [3, 16] | Giant foxtail plant response rating ([3]; Rate 62 g/ha, Postemergence) | Plant response rating, Crabgrass [4, 16] | Crabgrass plant response rating ([4]; Rate 62 g/ha, Postemergence) | Plant response rating, B. signalgrass [5, 16] | Plant response rating, B. signalgrass [5, 17] | Plant response rating, B. signalgrass [5, 18] | B. signalgrass plant response rating (0 to 10 scale, 0 is no effect, 10 is complete control) ([5]; Preemergence, Rate 125 g/ha) | B. signalgrass plant response rating ([5]; Rate 62 g/ha, Postemergence) | Plant response rating, Nutsedge [6, 16] | Plant response rating, Nutsedge [6, 17] | Plant response rating, Nutsedge [6, 18] | Nutsedge plant response rating (0 to 10 scale) ([6]; Preemergence, Rate 125 g/ha) | Nutsedge plant response rating ([6]; Preemergence, Rate 250 g/ha) | Nutsedge plant response rating ([6]; Rate 62 g/ha, Postemergence) | S. Flatsedge plant response rating [7, 21] | Plant response rating, S. Flatsedge (0 to 10 scale, 0 is no effect, 10 is complete control) [7, 22] | S. Flatsedge plant response rating [7, 23] | S. Flatsedge plant response rating [7, 24] | S. Flatsedge plant response rating [7, 26] | Plant response rating, Morningglory [8, 18] | Morningglory plant response rating (0 to 10 scale) ([8]; Preemergence, Rate 125 g/ha) | Morningglory plant response rating ([8]; Preemergence, Rate 250 g/ha) | Morningglory plant response rating ([8]; Preemergence, Rate 500 g/ha) | Plant response rating, Corn [9, 16] | Plant response rating, Corn [9, 17] | Plant response rating, Corn [9, 18] | Corn plant response rating (0 to 10 scale) ([9]; Preemergence, Rate 125 g/ha) | Corn plant response rating ([9]; Preemergence, Rate 250 g/ha) | Corn plant response rating ([9]; Preemergence, Rate 500 g/ha) | Corn plant response rating ([9]; Rate 62 g/ha, Postemergence) | Plant response rating, Corn [9, 19] | Plant response rating, Rice [10, 20] | Rice plant response rating [10, 21] | Plant response rating, Rice (0 to 10 scale, 0 is no effect, 10 is complete control) [10, 22] | Rice plant response rating [10, 23] | Rice plant response rating [10, 24] | Plant response rating, Rice [10, 25] | Rice plant response rating [10, 26] | Plant response rating, Rice [10, 27] | Plant response rating, Wild oats [11, 16] | Plant response rating, Wild oats [11, 17] | Plant response rating, Wild oats [11, 18] | Wild oats plant response rating (0 to 10 scale) ([11]; Preemergence, Rate 125 g/ha) | Wild oats plant response rating ([11]; Preemergence, Rate 250 g/ha) | Wild oats plant response rating ([11]; Rate 62 g/ha, Postemergence) | Plant response rating, Blackgrass [12, 16] | Plant response rating, Blackgrass [12, 18] | Blackgrass plant response rating (0 to 10 scale) ([12]; Preemergence, Rate 125 g/ha) | Blackgrass plant response rating ([12]; Rate 62 g/ha, Postemergence) | Plant response rating, Wheat [13, 16] | Plant response rating, Wheat [13, 17] | Plant response rating, Wheat [13, 18] | Wheat plant response rating (0 to 10 scale) ([13]; Preemergence, Rate 125 g/ha) | Wheat plant response rating ([13]; Preemergence, Rate 250 g/ha) | Wheat plant response rating ([13]; Preemergence, Rate 500 g/ha) | Wheat plant response rating ([13]; Rate 62 g/ha, Postemergence) | Plant response rating, Redroot pigweed [14, 16] | Plant response rating, Redroot pigweed [14, 17] | Plant response rating, Redroot pigweed [14, 18] | Redroot pigweed plant response rating ([14]; Rate 62 g/ha, Postemergence) | Plant response rating, Barnyardgrass [15, 20] | Barnyardgrass plant response rating [15, 21] | Plant response rating, Barnyardgrass (0 to 10 scale, 0 is no effect, 10 is complete control) [15, 22] | Barnyardgrass plant response rating [15, 23] | Barnyardgrass plant response rating [15, 24] | Barnyardgrass plant response rating [15, 26] | Plant response rating, Barnyardgrass [15, 27]
10: Giant foxtail plant response rating ([3]; Preemergence, Rate 250 g/ha) | Giant foxtail plant response rating ([3]; Preemergence, Rate 500 g/ha) | Crabgrass plant response rating ([4]; Preemergence, Rate 500 g/ha) | Plant response rating, Morningglory [8, 16] | Plant response rating, Morningglory [8, 17] | Plant response rating, Morningglory [8, 19] | Redroot pigweed plant response rating ([14]; Preemergence, Rate 250 g/ha) | Redroot pigweed plant response rating ([14]; Preemergence, Rate 500 g/ha)
8: Plant response rating, Giant foxtail [3, 18]
3: Plant response rating, Rape [1, 19] | Plant response rating, B. signalgrass [5, 19] | Plant response rating, Nutsedge [6, 19]
